# Laboratory results taken from patent US7541020B2, “Aminoalkyl glucosaminide phosphate compounds and their use as adjuvants and immunoeffectors” (priority 1997, dated 2009).
# Like-named read-outs stand apart in the source and are kept apart here.
# What was measured:
# [1] = tested on: E.G7 (OVA) cells; conditions: s.c. 25 μg OVA in AGP preparation, spleen cells 21 days later
# [2] = Fever response in rabbits (pyrogenicity); assay type: in vivo; conditions: for PYROGENICITY Total Rise ° C., 3 rabbits: 10 ug/kg, cumulative rise ≥1.5 degree in three rabbits is considered pyrogenic; for PY[…]: rabbits
# Description: The AGP compounds were also evaluated for their tendency to induce a fever response in rabbits. Each compound was formulated in 10% (v/v) ethanol/water solution at 100 mg/ml, then diluted with D5W to the desired concentration. The material was injected at 3 ml/kg body weight into 3 rabbits. The rise in core temperature of the rabbits was recorded.
# [3] = tested on: ovalbumin; test: Stimulation of antiovalbumin antibody production; assay type: in vivo, BDF1 female mice; conditions: 50 μg AGP + 50 μg ovalbumin; second immunization day 21; bled 14 days after second injection
# Description: BDF1 female mice (8 per group) were immunized with 0.2 ml of emulsions containing 50 μg of the AGPs +50 μg of ovalbumin. A second immunization was administered 21 days post primary. Each mouse was bled 14 days after the second injection.
# [4] = tested on: influenza A/HK/68; assay type: in vivo, BALB/c mice
# [5] = tested on: influenza A/HK/68; parameters: species or system ICR mice; conditions: mouse, in vivo
# [6] = tested on: influenza A/HK/68; assay type: in vivo, ICR mice; conditions: mouse, in vivo
# [7] = tested on: tetanus toxoid; conditions: mouse, in vivo, sc
# [8] = tested on: TNF-α; test: Cytokine induction in human whole blood ex vivo culture: TNF-α (ELISA); assay type: cell-based; conditions: 4 hr
# Description: (§1) AGP compounds were solubilized in 10% EtOH-water and diluted to various concentrations. Fifty μl of each dilution were added to 450 μl of whole human blood. Controls were treated with culture media (RPMI). The reaction mixture was incubated at 37° C. for 4 hr with constant mixing on a rotator. Sterile PBS (1.5 ml) was added to the reaction mixture, the cells were centrifuged and the supernatents removed for cytokine testing. The concentration of TNF-α and IL-1β in each supernatent was determined using immunoassay ELISA kits from R&D Systems.
# [9] = tested on: IL-1β; test: Cytokine induction in human whole blood ex vivo culture: IL-1β (ELISA); assay type: cell-based; conditions: 4 hr
# Description: as §1
# [10] = 25 μg AGP + 1 HAU FI-Flu in 2% Squalene, SQ once, bled 14 days after vaccination
molecule,measurement,setting,value
3-Hydroxy-(R)-2-[(R)-3-tetradecanoyloxytetradecanoylamino]propyl 2-Deoxy-4-O-phosphono-2-[(R)-3-tetradecanoyloxytetradecanoylamino]-3-O-[(R)-3-tetradecanoyloxytetradecanoyl]-β-D-glucopyranoside Triethylammonium Salt [B2],% Cytotoxicity,[1]; E:T 12.5:1,6%
same,% Cytotoxicity,[1]; E:T 25:1,12%
same,% Cytotoxicity,[1]; E:T 50:1,21%
same,"PYROGENICITY Total Rise ° C., 3 rabbits",[2],3.6 °C
same,PY[…],[2],2.5 to 5 µg/kg
same,Anti-ovalbumin IgG1 T/C,[3],5.0
same,Anti-ovalbumin IgG1 Titer,[3],8300
same,Anti-ovalbumin IgG2a T/C,[3],2.5
same,Anti-ovalbumin IgG2a Titer,[3],825
same,Anti-ovalbumin IgG2b T/C,[3],2.3
same,Anti-ovalbumin IgG2b Titer,[3],550
same,Anti-ovalbumin IgM T/C,[3],0.9
same,Anti-ovalbumin IgM Titer,[3],175
same,Anti-ovalbumin Total Ig T/C,[3],2.5
same,Anti-ovalbumin Total Ig Titer,[3],563
3-Hydroxy-(S)-2-[(R)-3-decanoyloxytetradecanoylamino]propyl 2-Deoxy-6-O-phosphono-2-[(R)-3-decanoyloxytetradecanoylamino]-3-O-[(R)-3-decanoyloxytetradecanoyl]-β-D-glucopyranoside Triethylammonium Salt [B6],Anti-influenza Titer^−1 IgG1,"[4]; mouse, in vivo",800
same,Anti-influenza Titer^−1 IgG2a,"[4]; mouse, in vivo",400
same,Anti-influenza Titer^−1 IgG2b,"[4]; mouse, in vivo",1600
same,Anti-influenza Titer^−1 Total IgG,"[4]; mouse, in vivo",800
same,Percent Survival,"[4]; mouse, in vivo",75%
same,% Cytotoxicity,[1]; E:T 12.5:1,37%
same,% Cytotoxicity,[1]; E:T 25:1,41%
same,% Cytotoxicity,[1]; E:T 50:1,54%
same,IgG Titer-1 post 1°,[5],1600
same,IgG Titer-1 post 2°,[5],"102,400"
same,Percent Survival post 1°,[5],80%
same,Percent Survival post 2°,[5],70%
3-Hydroxy-(S)-2-[(R)-3-tetradecanoyloxytetradecanoylamino]propyl 2-Deoxy-4-O-phosphono-2-[(R)-3-tetradecanoyloxytetradecanoylamino]-3-O-[(R)-3-tetradecanoyloxytetradecanoyl]-β-D-glucopyranoside Triethylammonium Salt [B1],% Cytotoxicity,[1]; E:T 12.5:1,15%
same,% Cytotoxicity,[1]; E:T 25:1,24%
same,% Cytotoxicity,[1]; E:T 50:1,34%
same,"PYROGENICITY Total Rise ° C., 3 rabbits",[2],0.1 °C
same,Percent Survival,[6],40%
same,Titer−1 IgG1,[6],6400
same,Titer−1 IgG2a,[6],1600
same,Titer−1 IgG2b,[6],15600
same,Titer−1 Total IgG,[6],"12,800"
same,Anti-ovalbumin IgG1 T/C,[3],0.5
same,Anti-ovalbumin IgG1 Titer,[3],763
same,Anti-ovalbumin IgG2a T/C,[3],0.2
same,Anti-ovalbumin IgG2a Titer,[3],56
same,Anti-ovalbumin IgG2b T/C,[3],0.8
same,Anti-ovalbumin IgG2b Titer,[3],188
same,Anti-ovalbumin IgM T/C,[3],0.8
same,Anti-ovalbumin IgM Titer,[3],150
same,Anti-ovalbumin Total Ig T/C,[3],0.5
same,Anti-ovalbumin Total Ig Titer,[3],119
"CCCCCCCCCCCCCC(=O)OC(CCCCCCCCCCC)CC(=O)NC(COC1OC(CO)C(OP(=O)(O)O)C(OC(=O)CC(CCCCCCCCCCC)OC(=O)CCCCCCCCCCCCC)C1NC(=O)CC(CCCCCCCCCCC)OC(=O)CCCCCCCCCCCCC)C(N)=O.CCN(CC)CC [B24, N-[(R)-3-Tetradecanoyloxytetradecanoyl]-O-phosphono-2-[(R)-3-tetradecanoyloxytetradecanoylamino]-3-O-[(R)-3-tetradecanoyloxytetradecanoyl]β-D-glucopyranosyl]-L-serinamide Triethylammonium Salt]","PYROGENICITY Total Rise ° C., 3 rabbits",[2],2.4 °C
same,PY[…],[2],2.5 to 5 µg/kg
"CCCCCCCCCCCCCC(=O)O[C@H](CCCCCCCCCCC)CC(=O)N[C@H]1[C@H](OC[C@H](NC(=O)C[C@@H](CCCCCCCCCCC)OC(=O)CCCCCCCCCCCCC)C(=O)OC)O[C@H](CO)[C@@H](OP(=O)(O)O)[C@@H]1OC(=O)C[C@@H](CCCCCCCCCCC)OC(=O)CCCCCCCCCCCCC.CCN(CC)CC [B26, N-[(R)-3-Tetradecanoyloxytetradecanoyl]-O-[2-deoxy-4-O-phosphono-2-[(R)-3-tetradecanoyloxytetradecanoylamino]-3-O-[(R)-3-tetradecanoyloxytetradecanoyl]-β-D-glucopyranosyl]-1-serine Methyl Ester Triethylammoniun Salt]",Anti-tetanus toxoid IgG1 T/C,[7],16.9
same,Anti-tetanus toxoid IgG1 Titer,[7],"25,200"
same,Anti-tetanus toxoid IgG2a T/C,[7],29.3
same,Anti-tetanus toxoid IgG2a Titer,[7],440
same,Anti-tetanus toxoid IgG2b T/C,[7],42.6
same,Anti-tetanus toxoid IgG2b Titer,[7],"2,260"
same,Anti-tetanus toxoid IgM T/C,[7],1.1
same,Anti-tetanus toxoid IgM Titer,[7],600
same,Anti-tetanus toxoid Total Ig T/C,[7],10.5
same,Anti-tetanus toxoid Total Ig Titer,[7],"2,490"
same,TNF-α,"[8]; Dosage 1 μg, 37° C., Table 14",38.85 pg/mL
same,TNF-α,"[8]; Dosage 5 μg, 37° C., Table 14",75.62 pg/mL
same,TNF-α,"[8]; Dosage 10 μg, 37° C., Table 14",254.94 pg/mL
same,TNF-α,"[8]; Dosage 20 μg, 37° C., Table 14",498.90 pg/mL
same,% Cytotoxicity,[1]; E:T 12.5:1,4%
same,% Cytotoxicity,[1]; E:T 25:1,8%
same,% Cytotoxicity,[1]; E:T 50:1,14%
same,IL-1β,"[9]; Dosage 1 μg, 37° C., Table 14",3.90 pg/mL
same,IL-1β,"[9]; Dosage 5 μg, 37° C., Table 14",9.89 pg/mL
same,IL-1β,"[9]; Dosage 10 μg, 37° C., Table 14",25.34 pg/mL
same,IL-1β,"[9]; Dosage 20 μg, 37° C., Table 14",33.25 pg/mL
same,"PYROGENICITY Total Rise ° C., 3 rabbits",[2],1.7 °C
same,PY[…],[2],5 µg/kg
CCCCCCCCCCC[C@H](CC(=O)N[C@H]1[C@H](OCCCN(CC(=O)O)C(=O)C[C@@H](CCCCCCCCCCC)OC(=O)CCCCCCCCC)O[C@H](CO)[C@@H](OP(=O)(O)O)[C@@H]1OC(=O)C[C@@H](CCCCCCCCCCC)OC(=O)CCCCCCCCC)OC(=O)CCCCCCCCC.CCN(CC)CC [B28],Anti-tetanus toxoid IgG1 T/C,[7],92.5
same,Anti-tetanus toxoid IgG1 Titer,[7],"137,600"
same,Anti-tetanus toxoid IgG2a T/C,[7],664.7
same,Anti-tetanus toxoid IgG2a Titer,[7],"9,970"
same,Anti-tetanus toxoid IgG2b T/C,[7],519.2
same,Anti-tetanus toxoid IgG2b Titer,[7],"27,520"
same,Anti-tetanus toxoid IgM T/C,[7],3.7
same,Anti-tetanus toxoid IgM Titer,[7],"2,080"
same,Anti-tetanus toxoid Total Ig T/C,[7],228.6
same,Anti-tetanus toxoid Total Ig Titer,[7],"54,500"
same,TNF-α,"[8]; Dosage 1000 ng/ml, Table 19",139 pg/mL
same,TNF-α,"[8]; Dosage 5000 ng/ml, Table 19",197 pg/mL
same,TNF-α,"[8]; Dosage 10,000 ng/ml, Table 19",198 pg/mL
same,Percent Survival,"[4]; 25 μg AGP + 1 HAU FI-Flu in 2% Squalene, SQ once, […], mortality 21 days",50%
same,Anti-influenza Titer^−1 IgG1,[4]; [10],400
same,Anti-influenza Titer^−1 IgG2a,[4]; [10],400
same,Anti-influenza Titer^−1 IgG2b,[4]; [10],100
same,Anti-influenza Titer^−1 Total IgG,[4]; [10],800
same,% Cytotoxicity,[1]; E:T 12.5:1,9%
same,% Cytotoxicity,[1]; E:T 25:1,15%
same,% Cytotoxicity,[1]; E:T 50:1,28%
same,IL-1β,"[9]; Dosage 1000 ng/ml, Table 19",8 pg/mL
same,IL-1β,"[9]; Dosage 5000 ng/ml, Table 19",13 pg/mL
same,IL-1β,"[9]; Dosage 10,000 ng/ml, Table 19",13 pg/mL
N-[(R)-3-Hexanoyloxytetradecanoyl]-O-[2-deoxy-4-O-phosphono-2-[(R)-3-hexanoyloxytetradecanoylamino]-3-O-[(R)-3-hexanoyloxytetradecanoyl]-α-d-glucopyranosyl]-l-serinamide Triethylammonium Salt [B29],% Cytotoxicity,[1]; E:T 12.5:1,5%
same,% Cytotoxicity,[1]; E:T 25:1,9%
same,% Cytotoxicity,[1]; E:T 50:1,16%
same,"PYROGENICITY Total Rise ° C., 3 rabbits",[2],0.7 °C
